Laboratory results as given in patent US12178902B1, “Methods and compositions for fluid drainage by Piezo ion channel activation” (UNIVERSITY OF SOUTHERN CALIFORNIA, priority 2020, dated 2024).
Entries after “also recorded” stand apart in the source; their conditions may differ.

Experiments:
Piezo1 = target: T1, Piezo1 (Mus musculus, UniProt E2JF22); test: Lymphatic valve formation in Prox1-EGFP mice after perinatal Yoda1 administration; assay type: in vivo; settings: Yoda1 70 μg/kg intraperitoneal at E18.5 and P0, evaluated at P1, mesenteries of the jejunum and the colon, tail skin
T1 construct: from tissue; host or cells: Prox1-EGFP mice (pregnant females at E18.5 and pups at P0); lymphatic vessels of mesentery (jejunum, colon) and tail skin
T1 sequence (E2JF22 whole entry): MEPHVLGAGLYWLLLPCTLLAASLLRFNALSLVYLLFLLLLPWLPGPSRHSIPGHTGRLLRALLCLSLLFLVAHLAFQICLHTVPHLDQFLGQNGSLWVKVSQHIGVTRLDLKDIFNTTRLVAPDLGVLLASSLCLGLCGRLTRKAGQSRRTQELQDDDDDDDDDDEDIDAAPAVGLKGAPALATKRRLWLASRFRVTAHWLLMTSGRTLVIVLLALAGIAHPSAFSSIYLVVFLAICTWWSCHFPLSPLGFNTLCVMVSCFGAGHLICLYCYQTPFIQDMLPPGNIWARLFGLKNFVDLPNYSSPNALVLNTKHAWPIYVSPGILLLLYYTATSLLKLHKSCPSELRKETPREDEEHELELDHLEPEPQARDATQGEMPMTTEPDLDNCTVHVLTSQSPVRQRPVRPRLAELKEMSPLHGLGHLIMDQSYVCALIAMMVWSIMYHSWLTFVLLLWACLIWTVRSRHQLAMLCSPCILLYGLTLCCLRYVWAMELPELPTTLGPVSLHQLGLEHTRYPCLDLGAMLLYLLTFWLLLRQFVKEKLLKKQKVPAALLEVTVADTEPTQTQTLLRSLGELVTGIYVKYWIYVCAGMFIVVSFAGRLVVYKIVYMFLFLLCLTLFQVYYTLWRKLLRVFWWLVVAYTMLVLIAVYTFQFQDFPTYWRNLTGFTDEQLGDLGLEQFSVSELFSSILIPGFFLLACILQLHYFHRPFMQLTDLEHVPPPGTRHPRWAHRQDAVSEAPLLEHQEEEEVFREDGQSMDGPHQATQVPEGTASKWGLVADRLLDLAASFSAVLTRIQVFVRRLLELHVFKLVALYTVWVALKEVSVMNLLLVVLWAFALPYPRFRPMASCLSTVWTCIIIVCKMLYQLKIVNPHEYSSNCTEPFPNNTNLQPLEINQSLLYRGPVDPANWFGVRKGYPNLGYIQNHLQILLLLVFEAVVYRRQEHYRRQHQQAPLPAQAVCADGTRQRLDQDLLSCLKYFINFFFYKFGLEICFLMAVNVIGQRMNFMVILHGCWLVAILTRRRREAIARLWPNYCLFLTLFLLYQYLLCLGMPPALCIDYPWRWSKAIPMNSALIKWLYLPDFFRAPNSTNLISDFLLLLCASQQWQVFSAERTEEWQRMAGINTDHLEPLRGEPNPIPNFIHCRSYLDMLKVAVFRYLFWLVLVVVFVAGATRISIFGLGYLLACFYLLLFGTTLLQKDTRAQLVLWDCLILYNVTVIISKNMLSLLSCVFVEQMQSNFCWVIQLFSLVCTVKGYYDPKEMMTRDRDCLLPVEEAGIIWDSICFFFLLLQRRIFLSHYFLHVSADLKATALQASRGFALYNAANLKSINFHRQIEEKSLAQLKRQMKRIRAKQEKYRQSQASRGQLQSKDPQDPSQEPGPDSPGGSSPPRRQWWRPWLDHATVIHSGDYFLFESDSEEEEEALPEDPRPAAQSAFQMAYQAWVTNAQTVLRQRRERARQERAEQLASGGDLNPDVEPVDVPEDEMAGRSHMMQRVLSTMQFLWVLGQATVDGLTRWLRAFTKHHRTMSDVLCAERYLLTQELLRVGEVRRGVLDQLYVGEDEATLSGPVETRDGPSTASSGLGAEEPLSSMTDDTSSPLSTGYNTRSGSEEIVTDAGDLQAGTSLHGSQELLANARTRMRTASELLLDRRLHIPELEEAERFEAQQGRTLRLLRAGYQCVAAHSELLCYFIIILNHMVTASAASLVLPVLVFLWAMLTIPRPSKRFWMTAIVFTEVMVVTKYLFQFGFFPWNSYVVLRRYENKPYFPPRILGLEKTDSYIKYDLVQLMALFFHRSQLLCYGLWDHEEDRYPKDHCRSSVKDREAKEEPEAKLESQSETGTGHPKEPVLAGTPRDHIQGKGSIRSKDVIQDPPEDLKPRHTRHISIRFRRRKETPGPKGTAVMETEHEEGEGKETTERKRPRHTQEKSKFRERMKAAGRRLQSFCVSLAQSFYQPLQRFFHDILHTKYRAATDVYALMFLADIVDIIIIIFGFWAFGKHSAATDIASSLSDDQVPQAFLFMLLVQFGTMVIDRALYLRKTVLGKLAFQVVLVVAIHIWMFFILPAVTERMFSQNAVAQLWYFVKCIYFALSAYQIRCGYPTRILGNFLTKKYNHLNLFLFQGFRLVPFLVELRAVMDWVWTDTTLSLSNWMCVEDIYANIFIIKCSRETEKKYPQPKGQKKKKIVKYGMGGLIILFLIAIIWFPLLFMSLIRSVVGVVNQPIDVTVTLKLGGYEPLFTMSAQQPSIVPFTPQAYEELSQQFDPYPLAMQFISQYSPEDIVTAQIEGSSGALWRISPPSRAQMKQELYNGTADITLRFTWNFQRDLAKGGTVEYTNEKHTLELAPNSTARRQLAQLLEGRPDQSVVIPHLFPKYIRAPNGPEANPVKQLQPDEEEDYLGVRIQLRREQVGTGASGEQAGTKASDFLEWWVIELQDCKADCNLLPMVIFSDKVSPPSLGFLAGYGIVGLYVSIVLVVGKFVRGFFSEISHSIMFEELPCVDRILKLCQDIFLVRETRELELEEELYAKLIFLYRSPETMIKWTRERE
From the text: All mouse works have been approved by the Institutional Animal Care and Use Committee, University of Southern California (PI: YK Hong). Sources of the mice are: Prox1-EGFP (Tg(Prox1-EGFP)KY221Gsat, Mutant Mouse Resource and Research Centers) (35), Prox1-tdTomato (Tg(Prox1-tdTomato)TA76Gsat/Mmucd, Mutant Mouse Resource and Research Centers) (28), Prox1-CreER^T2 (a kind gift from Dr. Taija Makinen, Uppsala University, Sweden) (17), Piezo1^fl/fl (Piezo1^tm2.1Apat/J. Jackson Laboratory) (29). Mice were maintained in mixed outbred backgrounds. […]
Pregnant Prox1-EGFP females at E18.5 were intraperitoneal injected with vehicle or Yoda1 (70 μg/kg). […] Equivalent anatomic locations were selected for capturing images in the vehicle and Yoda1-treated groups, and their lymphatic valve formation was investigated and quantified (Supplemental FIG. 5).
As Piezo1 was originally identified as a mechanically activated cation channel (21-25), we next asked whether another physical force, such as cell stretching, could stimulate Piezo1 and induce the molecular signature of lymphatic valves. […] Prox1-EGFP mice were perinatally administrated at E18.5 and P0 with a chemical agonist of Piezo1, Yoda1 (30), and lymphatic valve formation in the small intestine, colon, and skin was evaluated at P1. […]

cultured LECs = test: Lymphatic valve gene expression in Yoda1-treated cultured LECs in the absence of OSS; assay type: cell-based, human
Description: As Piezo1 was originally identified as a mechanically activated cation channel (21-25), we next asked whether another physical force, such as cell stretching, could stimulate Piezo1 and induce the molecular signature of lymphatic valves. To address this question, primary LECs were subjected to cyclic cell stretching (112%, 12 Hz) for 4, 8, and 24 hours in the absence of OSS, and the expression of the lymphatic valve genes were investigated. […] In addition, we investigated whether chemical activation of Piezo1 promotes lymphatic valve formation in animals. Prox1-EGFP mice were perinatally administrated at E18.5 and P0 with a chemical agonist of Piezo1, Yoda1 (30), and lymphatic valve formation in the small intestine, colon, and skin was evaluated at P1. […] We then asked whether Yoda1 could activate cultured LECs to upregulate lymphatic valve genes in the absence of OSS.

Clc1cccc(Cl)c1CSc1nnc(-c2cnccn2)s1 [Yoda1, 2-[(2,6-dichlorophenyl)methylsulfanyl]-5-pyrazin-2-yl-1,3,4-thiadiazole]
lymphatic valve formation (Piezo1): significantly expedited; also recorded: accelerated lymphatic valve formation
FOXC2 expression (cultured LECs): rather downregulated
CX37 expression (cultured LECs; Piezo1-dependent): upregulates
GATA2 expression (cultured LECs; Piezo1-dependent): upregulates
ITGA9 expression (cultured LECs; Piezo1-dependent): upregulates
LAMA5 expression (cultured LECs; Piezo1-dependent): upregulates
